{"source": "patent US20040048805A1", "about": "“Antilipemic agents” (priority 2003, published 2004)", "origin": "cited, not measured here", "test_system": "HMG-CoA reductase", "details": "oral administration to rabbits; Arterioscler Thromb Vasc Biol. 1998; 18: 1304", "data": [{"smiles": "CCC(CC)CC(=O)c1c(C(=O)OC)c(-c2ccc(OC)c(OC)c2)c2c(OC)c(OC)c(OC)cc2c1O", "note": "[compound A, methyl 1-(3,4-dimethoxyphenyl)-3-(3-ethylvaleryl)-4-hydroxy-6,7,8-trimethoxy-2-naphtoate]", "values": [{"measurement": "HMG-CoA reductase activity in the liver", "value": "increased the HMG-CoA reductase activity in the liver"}]}]}
